Laboratory results published in patent publication US20050074829A1, “Methods for identifying inhibitors of sterol 14-alpha-demethylase” (priority 2003, published 2005).

Tests used:
OBT-DM [1] = biological target: T1, OBT-DM (Arabidopsis thaliana, UniProt Q9SAA9); settings: for wavelength of maximum absorbance in difference spectrum / wavelength of minimum absorbance in difference spectrum: 0.25 mg/ml OBT-DM in 50 mM HEPES pH 7.2, 1 μL of 1 mM inhibitor added, spectrum 300-500 nm
T1 sequence (Q9SAA9 35-488): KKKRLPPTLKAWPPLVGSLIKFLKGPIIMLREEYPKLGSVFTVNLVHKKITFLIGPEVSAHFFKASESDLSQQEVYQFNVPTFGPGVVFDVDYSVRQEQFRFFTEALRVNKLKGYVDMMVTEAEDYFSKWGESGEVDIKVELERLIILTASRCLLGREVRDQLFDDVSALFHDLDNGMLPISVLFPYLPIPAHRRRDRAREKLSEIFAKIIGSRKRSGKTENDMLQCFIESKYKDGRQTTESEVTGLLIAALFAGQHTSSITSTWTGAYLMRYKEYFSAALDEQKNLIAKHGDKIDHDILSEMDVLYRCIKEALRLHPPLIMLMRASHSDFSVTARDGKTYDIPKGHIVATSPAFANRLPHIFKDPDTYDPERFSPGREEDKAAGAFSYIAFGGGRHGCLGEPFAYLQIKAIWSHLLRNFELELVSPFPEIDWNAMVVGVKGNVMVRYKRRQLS
Experimental: An OBT-DM solution (0.25 mg/ml) in 50 mM HEPES, pH 7.2, was placed in a micro-quartz cuvette with 1 cm path length. The solution was used to blank a Hewlett Packard 8453 spectrometer. Then 1 μL of a 1 mM solution of type II inhibitor in 50% (v/v) DMSO ethanol was added and the spectrum was acquired between the 300 and 500 nm region.

OBT-DM [2] = biological target: T2, OBT-DM (Arabidopsis thaliana, UniProt Q9SAA9); test: Equilibrium inhibitory constant for OBT-DM (no method given); assay type: binding
T2 sequence (Q9SAA9 1-488): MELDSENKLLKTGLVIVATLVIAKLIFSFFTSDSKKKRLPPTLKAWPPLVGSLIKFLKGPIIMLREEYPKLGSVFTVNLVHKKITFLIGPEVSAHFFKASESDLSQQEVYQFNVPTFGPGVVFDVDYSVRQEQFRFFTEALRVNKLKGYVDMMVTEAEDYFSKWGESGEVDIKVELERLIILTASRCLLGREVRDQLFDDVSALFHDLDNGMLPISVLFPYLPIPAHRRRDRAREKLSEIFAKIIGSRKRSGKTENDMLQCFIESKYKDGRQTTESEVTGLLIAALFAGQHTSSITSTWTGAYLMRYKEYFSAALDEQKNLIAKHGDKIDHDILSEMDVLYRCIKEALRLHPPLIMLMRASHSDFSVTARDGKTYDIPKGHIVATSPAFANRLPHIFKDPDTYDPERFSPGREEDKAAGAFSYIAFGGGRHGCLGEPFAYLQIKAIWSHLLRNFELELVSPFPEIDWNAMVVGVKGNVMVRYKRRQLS

OBT-DM [3] = biological target: T1, OBT-DM; test: 384-well assay for identification of inhibitors of OBT-DM, read at 413 nm with 432 nm as reference; assay type: binding; design: made in house; host or cells: E. coli Rosetta DE3 pLysS; settings: 10 μM compound, 0.4 mg/ml OBT-DM, 20 min room temperature; negative control wells 0.09-0.12
Experimental: The assay was performed using 0.4 mg/ml OBTDM in 50 mM HEPES, pH 7.2, and 0.01% Tween 20 in all wells plus 10 μM Ketoconazole (positive control) in 50 mM HEPES, pH 7.2, and 0.01% Tween 20 in plate rows A-H; 10 μM compounds numbered 1-24 in 50 mM HEPES, pH 7.2, and 0.01% Tween 20 in row I; and 50 mM HEPES, pH 7.2, and 0.01% Tween 20 in rows K-P (negative control).
The assay was set up in a 384-well plate format and initiated by the addition of 40 μl of 20 μM Ketoconazole (ICN Biomedicals, Inc., Irvine, Calif.) in 50 mM HEPES, pH 7.2, 0.01% Tween 20, to rows A-H to a final concentration of 10 μM (positive control) and 40 μl of 50 mM HEPES, pH 7.2, 0.01% Tween 20, to rows K-P (negative control). Test compounds were added to a concentration of 10 μM in row I by manual addition of 40 μl of a 20 μM solution (compounds assigned numbers from 1-24). Then 40 μl of an 0.8 mg/ml solution of OBT-DM protein in 50 mM HEPES, pH 7.2, 0.01% Tween 20 (from Example 2) was added to all wells to a final concentration of 0.4 mg/ml via multidrop.

Row | wavelength of maximum absorbance in difference spectrum (OBT-DM [1]) | wavelength of minimum absorbance in difference spectrum (OBT-DM [1]) | magnitude of the type II difference spectrum signal (OBT-DM [1]; comparison among inhibitors studied) | SMILES | Ki (OBT-DM [2]) | absorbance reading at 413 nm using 432 nm as reference wavelength (OBT-DM [3])
1 | 432 nm | 413 nm |  | OC(Cn1cncn1)(Cn1cncn1)c1ccc(F)cc1F [Compound 2, Fluconazole] |  | 
2 | 432 nm | 413 nm |  | Clc1ccccc1C(c1ccccc1)(c1ccccc1)n1ccnc1 [Compound 4, Clotrimazole] |  | 
3 |  |  |  | Nc1nc[nH]n1 [Compound 10, 3-amino-1,2,4-triazole] | > 10 µM | negative result
4 | 432 nm | 413 nm | maximum magnitude of the signal | CC(=O)N1CCN(c2ccc(OCC3COC(Cn4ccnc4)(c4ccc(Cl)cc4Cl)O3)cc2)CC1 (stereo not drawn) [Ketoconazole] |  | 
